According to US9029542B2 (priority 2011, dated 2015):
“And” between values parts separate entries of the source, which are not always exact repeats. Identical values can stand only once. Like-named read-outs stand apart in the source and are kept apart here.

How the values were obtained:
Sorghum = assay: whole plant or invertebrate; type: in vivo
Cucumber = assay: whole plant or invertebrate; type: in vivo; details: Cucumis sativus
rape = assay: animal or person; type: in vivo
Abutilon theophrasti = assay: whole plant or invertebrate; type: in vivo; details: for pest or weed control at 150 g/ha: Abutilon theophrasti, 600 h, read-out: Postemergence weed clearing activity, Abutilon theophrasti
cockspur grass = assay: whole plant or invertebrate; type: in vivo; details: Echinochloa crus-galli
Wheat = assay: whole plant or invertebrate; type: in vivo; details: Triticum aestivum
Eclipta prostrata = assay: whole plant or invertebrate; type: in vivo; details: for pest or weed control at 150 g/ha: Eclipta prostrata, 600 h, read-out: weed clearing activity, Eclipta prostrata Postemergence; for Weed clearing activity, Eclipta prostrata, Postemergence: in vivo
Capsella bursa-pastoris = assay: whole plant or invertebrate; type: in vivo; details: 600 h, read-out: weed clearing activity, Capsella bursa-pastoris Postemergence
Radish = assay: whole plant or invertebrate; type: in vivo; details: Raphanus sativus
Amaranthus retroflexus = assay: whole plant or invertebrate; type: in vivo; details: for pest or weed control at 150 g/ha: Amaranthus retroflexus, 600 h, read-out: weed clearing activity, Amaranthus retroflexus Postemergence
[1] = system: weeds of the expanded weed killing spectrum; details: in vivo
[2] = read-out: inhibitory activity, Sorghum Root
[3] = read-out: inhibitory activity, Sorghum Stem
[4] = read-out: inhibitory activity, Cucumber Root
[5] = read-out: inhibitory activity, Cucumber Stem
[6] = read-out: inhibitory activity, Rape Root
[7] = read-out: inhibitory activity, Rape Stem
[8] = read-out: inhibitory activity, Cockspur grass Root
[9] = read-out: inhibitory activity, Cockspur grass Stem
[10] = read-out: inhibitory activity, Wheat Root
[11] = read-out: inhibitory activity, Wheat Stem
[12] = read-out: inhibitory activity, Radish Root
[13] = read-out: inhibitory activity, Radish Stem

Row | Compound | inhibition at 100 µg/mL (Sorghum; [2]) [%] | inhibition at 100 µg/mL (Sorghum; [3]) [%] | inhibition at 100 µg/mL (Cucumber; [4]) [%] | inhibition at 100 µg/mL (Cucumber; [5]) [%] | inhibition at 100 µg/mL (rape; [6]) [%] | inhibition at 100 µg/mL (rape; [7]) [%] | pest or weed control at 150 g/ha (Abutilon theophrasti) [%] | inhibition at 100 µg/mL (cockspur grass; [8]) [%] | inhibition at 100 µg/mL (cockspur grass; [9]) [%] | inhibition at 100 µg/mL (Wheat; [10]) [%] | inhibition at 100 µg/mL (Wheat; [11]) [%] | pest or weed control at 150 g/ha (Eclipta prostrata) [%] | pest or weed control at 150 g/ha (Capsella bursa-pastoris) [%] | inhibition at 100 µg/mL (Radish; [12]) [%] | inhibition at 100 µg/mL (Radish; [13]) [%] | pest or weed control at 150 g/ha (Amaranthus retroflexus) [%] | Weed clearing activity, Eclipta prostrata, Postemergence (Eclipta prostrata) | further results
1 | Cc1cc(OCC(=O)OC(C)P2(=O)OCC(C)(C)CO2)ccc1Cl (stereo not drawn) [Compound 32, 2-(3-methyl-4-chlorophenoxyethylacyloxy)(methyl)methyl-5,5-dimethyl-1,3,2-dioxaphosphorinan-2-one phosphonate] | 0 | 0 | 60 | 90 | 90 | 90 | 70 | 0 | 0 | 0 | 0 | 60 | 70 | 90 | 60 | 60 | – | –
2 | CC(OC(=O)COc1ccc(F)cc1Cl)P1(=O)OCC(C)(C)CO1 (stereo not drawn) [Compound 37, 2-(2-chloro-4-fluorphenoxyethylacyloxy)(methyl)methyl-5,5-dimethyl-1,3,2-dioxaphosphorinan-2-one phosphonate] | 0 | 0 | 60 | 30 | 100 | 100 | 90 | 0 | 0 | 60 | 30 | 85 | 95 | 90 | 30 | 90 | 60% and 85% | Activity of expanded weed killing spectrum, Alligator alternanthera [1]: 60%; Activity of expanded weed killing spectrum, Ammania [1]: 60%; Activity of expanded weed killing spectrum, Cabbage [1]: 70%; Activity of expanded weed killing spectrum, Cayenne pepper [1]: 60% and 75%; Activity of expanded weed killing spectrum, Cucumis sativus [1]: 60% and 70%; Activity of expanded weed killing spectrum, Eclipta prostrata [1]: 60%; Activity of expanded weed killing spectrum, Monochoria [1]: 50%; Activity of expanded weed killing spectrum, Rape [1]: 70% and 75%; Activity of expanded weed killing spectrum, Rumex acetosa [1]: 70% and 75%; Activity of expanded weed killing spectrum, Vicia cracca [1]: 70%; Weed clearing activity, Abutilon theophrasti, Postemergence (Abutilon theophrasti; in vivo): 70%; Weed clearing activity, Amaranthus retroflexus, Postemergence (Amaranthus retroflexus; in vivo): 60%
3 | Cc1cc(Cl)ccc1OCC(=O)OC(C)P1(=O)OCC(C)(C)CO1 (stereo not drawn) [Compound 34, 2-(2-methyl-4-chlorophenoxyethylacyloxy)(methyl)methyl-5,5-dimethyl-1,3,2-dioxaphosphorinan-2-one phosphonate] | 100 | 100 | 100 | 100 | 100 | 100 | 75 | 70 | 80 | 90 | 60 | 80 | 90 | 100 | 100 | 90 | 85% | Activity of expanded weed killing spectrum, Alligator alternanthera [1]: 60% and 70%; Activity of expanded weed killing spectrum, Ammania [1]: 50% and 60%; Activity of expanded weed killing spectrum, Cabbage [1]: 70%; Activity of expanded weed killing spectrum, Capsella bursa-pastoris [1]: 85%; Activity of expanded weed killing spectrum, Cayenne pepper [1]: 70%; Activity of expanded weed killing spectrum, Cucumis sativus [1]: 60% and 70%; Activity of expanded weed killing spectrum, Monochoria [1]: 30% and 60%; Activity of expanded weed killing spectrum, Pakchoi [1]: 70%; Activity of expanded weed killing spectrum, Pigweed [1]: 70% and 75%; Activity of expanded weed killing spectrum, Rape [1]: 85%; Activity of expanded weed killing spectrum, Rumex acetosa [1]: 70% and 75%; Activity of expanded weed killing spectrum, Tomato [1]: 60% and 70%; Activity of expanded weed killing spectrum, Vicia cracca [1]: 70%
4 | CC(Oc1ccc(F)cc1)C(=O)OC(C)P1(=O)OCC(C)(C)CO1 (stereo not drawn) [Compound 44, 2-(4-fluorphenoxyisopropylacyloxy)(methyl)methyl-5,5-dimethyl-1,3,2-dioxaphosphorinan-2-one phosphonate] | 0 | 0 | 30 | 30 | 100 | 30 | 60 | 0 | 0 | 0 | 0 | 60 | 70 | 80 | 30 | 50 | – | –
5 | CC(Oc1ccc(F)cc1Cl)C(=O)OC(C)P1(=O)OCC(C)(C)CO1 (stereo not drawn) [Compound 41, 2-(2-chloro-4-fluorphenoxyisopropylacyloxy)(methyl)methyl-5,5-dimethyl-1,3,2-dioxaphosphorinan-2-one phosphonate] | 70 | 70 | 80 | 60 | 100 | 90 | 70 | 0 | 0 | 70 | 40 | 60 | 90 | 80 | 60 | 60 | 60% | –
6 | CC(Oc1ccc(Cl)cc1)C(=O)OC(C)P1(=O)OCC(C)(C)CO1 (stereo not drawn) [Compound 38, 2-(4-chlorophenoxyisopropylacyloxy)(methyl)methyl-5,5-dimethyl-1,3,2-dioxaphosphorinan-2-one phosphonate] | 0 | 0 | 60 | 30 | 100 | 100 | 60 | 0 | 0 | 30 | 30 | 60 | 70 | 70 | 30 | 50 | – | –
7 | CC(Oc1ccc(Cl)cc1Cl)C(=O)OC(C)P1(=O)OCC(C)(C)CO1 (stereo not drawn) [Compound 39, 2-(2,4-dichlorophenoxyisopropylacyloxy)(methyl)methyl-5,5-dimethyl-1,3,2-dioxaphosphorinan-2-one phosphonate] | 70 | 60 | 80 | 30 | 100 | 40 | 70 | 0 | 0 | 60 | 60 | 60 | 80 | 100 | 30 | 70 | – | –
8 | CC(OC(=O)COc1cccc(C(F)(F)F)c1)P1(=O)OCC(C)(C)CO1 (stereo not drawn) [Compound 45, 2-(3-trifluormethylphenoxyethylacyloxy)(methyl)methyl-5,5-dimethyl-1,3,2-dioxaphosphorinan-2-one phosphonate] | 70 | 60 | 98 | 50 | 85 | 30 | 75 | 0 | 0 | 80 | 60 | 50 | 85 | 90 | 60 | 50 | – | –
